This note sets out measurements from PubChem BioAssay (NCI).

Each structure is given as a SMILES string. “And” between values parts separate entries of the source, which are not always exact repeats. Equal values may be shown once.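 Dose response: 5 concentrations. Exposure: 48 h. Format: 96-well plates. Endpoint: linear interpolation; highest concentration if not reached. GI50 is the concentration that inhibits growth by half. TGI marks complete inhibition of growth.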

Among the test systems are SK-MEL-28 melanoma; CAKI-1 renal; SW-620 colon; SK-MEL-2 melanoma; SF-268 CNS; HCT-15 colon; SNB-19 CNS; PC-3 prostate; RXF 393 renal; RPMI-8226 leukemia.
Assay in all cases: NCI-60 cell line screen, 48 h

Take `CCN1C(=O)N(c2ccccc2)C2NC(=S)N(/N=C/C=C/c3ccccc3)C21` (centres undefined): the GI50 with SK-MEL-28 melanoma is 1.74 µM; in the assay with CAKI-1 renal it was 0.269 µM; with SW-620 colon it was 0.38 µM; in the assay on SK-MEL-2 melanoma it was 0.345 µM; with SF-268 CNS it was 1.02 µM; in the assay on HCT-15 colon it was 0.293 µM. In addition, the GI50 was 0.472 µM in the assay on SNB-19 CNS, 0.394 µM in the assay with PC-3 prostate, 0.345 µM in the assay on RXF 393 renal and 0.451 µM with RPMI-8226 leukemia. Also, the TGI in the assay with SK-MEL-28 melanoma is > 100 µM; with CAKI-1 renal it was > 100 µM; in the assay with SW-620 colon, > 100 µM; with SK-MEL-2 melanoma, > 94.2 µM; in the assay on SF-268 CNS, > 100 µM; in the assay with HCT-15 colon, > 100 µM. The TGI in the assay on SNB-19 CNS, in the assay on PC-3 prostate, with RXF 393 renal and with RPMI-8226 leukemia was > 100 µM throughout.
Consider `CCC[CH2][Sn]([CH2]CCC)([CH2]CCC)[O]C(=O)c1ccc(Cl)cc1Cl`, for which the GI50 is 0.159 µM with SK-MEL-28 melanoma; 0.0785 µM with CAKI-1 renal; 0.158 µM with SW-620 colon; 0.149 µM in the assay on SK-MEL-2 melanoma; 0.134 µM in the assay with SF-268 CNS; 0.173 µM with HCT-15 colon. Moreover, the GI50 in the assay with SNB-19 CNS is 0.179 µM; in the assay with PC-3 prostate it was 0.202 µM; in the assay with RXF 393 renal it was 0.151 µM; with RPMI-8226 leukemia it was 0.146 µM. Moreover, the TGI with SK-MEL-28 melanoma amounted to 0.302 µM; with CAKI-1 renal, 0.255 µM; with SW-620 colon, 0.335 µM; in the assay on SK-MEL-2 melanoma it was 0.333 µM; in the assay on SF-268 CNS it was 0.283 µM; in the assay with HCT-15 colon, 0.419 µM. Moreover, the TGI in the assay on SNB-19 CNS is 0.359 µM; in the assay with PC-3 prostate, 0.471 µM; with RXF 393 renal it was 0.321 µM.
Take `COc1ccc(C(=O)/C=C/c2ccc3c(c2)OCO3)c(OCc2ccccc2)c1`: the TGI with SK-MEL-28 melanoma, in the assay on CAKI-1 renal, in the assay on SW-620 colon, in the assay on SK-MEL-2 melanoma, in the assay on SF-268 CNS and with HCT-15 colon was > 100 µM throughout. In addition, the TGI in the assay on SNB-19 CNS was > 100 µM; with PC-3 prostate it was > 100 µM; in the assay with RXF 393 renal, > 100 µM; in the assay with RPMI-8226 leukemia, 76.6 µM.
For `COc1cccc(OCCCN)c1-c1cc(Nc2cnc(C#N)cn2)n[nH]1`, the GI50 in the assay with SK-MEL-28 melanoma is 0.955 µM and 3.11 µM; with CAKI-1 renal it was 0.405 µM and 0.0455 µM; in the assay on SW-620 colon, 0.0573 µM and 0.054 µM; in the assay with SK-MEL-2 melanoma, 0.00476 µM; in the assay with SF-268 CNS, 0.0871 µM and 0.0754 µM; in the assay on HCT-15 colon it was 0.0585 µM and 0.07 µM. Besides, the GI50 was 0.0188 µM and 0.0256 µM with SNB-19 CNS; 2.41 µM with PC-3 prostate; 0.00496 µM in the assay with RXF 393 renal; 0.197 µM and 0.0489 µM in the assay on RPMI-8226 leukemia. Further, the TGI with SK-MEL-28 melanoma was determined as 17.4 µM; in the assay on CAKI-1 renal, 11.9 µM; with SW-620 colon, 12 µM; in the assay on SK-MEL-2 melanoma, 0.0644 µM; in the assay on SF-268 CNS, 13.2 µM; with HCT-15 colon, 14 µM. Also, the TGI was 19.5 µM with SNB-19 CNS; 21.5 µM with PC-3 prostate; 0.0616 µM and 0.156 µM in the assay on RXF 393 renal; 7.59 µM in the assay with RPMI-8226 leukemia.
For the compound `C=C(C)[C@@H]1CC[C@]2(C)[C@H](CC=C3[C@@H]4[C@@H](C)[C@H](C)CC[C@]4(C(N)=O)CC[C@]32C)[C@@]1(C)CCC#N`, the GI50 was 7.57 µM in the assay with SK-MEL-28 melanoma; 3.25 µM in the assay on CAKI-1 renal; 4.5 µM in the assay on SW-620 colon; 6.98 µM in the assay on SK-MEL-2 melanoma; 4.52 µM in the assay on SF-268 CNS; 3.44 µM in the assay with HCT-15 colon. Moreover, the GI50 in the assay on SNB-19 CNS is 6.31 µM; with PC-3 prostate it was 2.58 µM; in the assay on RXF 393 renal it was 3.33 µM; with RPMI-8226 leukemia it was 2.18 µM. In addition, the TGI with SK-MEL-28 melanoma was 22.7 µM; in the assay with CAKI-1 renal it was > 100 µM; in the assay with SW-620 colon, > 100 µM; in the assay with SK-MEL-2 melanoma it was 23.2 µM; with SF-268 CNS, > 100 µM; in the assay on HCT-15 colon, > 100 µM. Moreover, the TGI with SNB-19 CNS was > 100 µM; in the assay on PC-3 prostate it was 21 µM; in the assay with RXF 393 renal, 11.4 µM; with RPMI-8226 leukemia it was 6.27 µM.
Take `Nc1c([N+](=O)[O-])cc2c3c(cccc13)CC2`: the TGI with SK-MEL-28 melanoma, with CAKI-1 renal, in the assay with SW-620 colon, in the assay with SK-MEL-2 melanoma, in the assay on SF-268 CNS and in the assay on HCT-15 colon was > 100 µM throughout. Besides, the TGI in the assay with SNB-19 CNS was > 100 µM; in the assay on PC-3 prostate, > 100 µM; in the assay on RXF 393 renal, 74.2 µM; in the assay on RPMI-8226 leukemia, > 100 µM.
Regarding `Cc1cc(NCc2cc(Nc3ccnc4cc(Cl)ccc34)ccc2F)nc(N2CCN(C)CC2)n1`, the GI50 in the assay with SK-MEL-28 melanoma is 1.7 µM; with CAKI-1 renal, 1.67 µM; in the assay on SW-620 colon, 1.63 µM; with SK-MEL-2 melanoma it was 2.03 µM; in the assay with SF-268 CNS, 1.81 µM; with HCT-15 colon, 1.34 µM. Further, the GI50 is 2.72 µM in the assay on SNB-19 CNS, 1.92 µM in the assay with PC-3 prostate, 1.26 µM with RXF 393 renal and 1.32 µM in the assay with RPMI-8226 leukemia. Further, the TGI in the assay with SK-MEL-28 melanoma is 3.26 µM; in the assay with CAKI-1 renal, 4 µM; in the assay with SW-620 colon, 4.23 µM; in the assay on SK-MEL-2 melanoma, 3.93 µM; in the assay on SF-268 CNS it was 4.53 µM; in the assay on HCT-15 colon, 3.45 µM. Further, the TGI with SNB-19 CNS turned out to be 12.9 µM; in the assay on PC-3 prostate it was 7.97 µM; in the assay with RXF 393 renal, 2.94 µM; in the assay with RPMI-8226 leukemia it was 3.65 µM.
On to `CC(C)COCC(CN(Cc1ccccc1)c1ccccc1)N1CCCC1` (centres undefined), for which the GI50 with SK-MEL-28 melanoma is 3.48 µM; with CAKI-1 renal, 3.25 µM; in the assay with SW-620 colon it was 3.54 µM; in the assay on SK-MEL-2 melanoma, 2.73 µM; with SF-268 CNS it was 4.01 µM; with HCT-15 colon, 3.15 µM. The GI50 with SNB-19 CNS was 3.07 µM; in the assay on PC-3 prostate, 3.04 µM; with RXF 393 renal it was 1.76 µM; with RPMI-8226 leukemia it was 1.91 µM. Moreover, the TGI in the assay with SK-MEL-28 melanoma was 13.8 µM; in the assay with CAKI-1 renal, 13.7 µM; in the assay with SW-620 colon it was 15.2 µM; in the assay on SK-MEL-2 melanoma it was 8 µM; in the assay with SF-268 CNS it was 16.1 µM; in the assay on HCT-15 colon, 15.2 µM. The TGI stood at 12.2 µM in the assay with SNB-19 CNS, 13.9 µM in the assay with PC-3 prostate, 6.37 µM with RXF 393 renal and 5.41 µM in the assay on RPMI-8226 leukemia.
As to `O=C1C2C(c3ccccc3)NC(c3ccccc3)C1C(c1ccccc1)NC2c1ccccc1` (centres undefined), the TGI in the assay on SK-MEL-28 melanoma, with CAKI-1 renal, with SW-620 colon, in the assay on SK-MEL-2 melanoma, with SF-268 CNS and with HCT-15 colon was > 100 µM in each case. In addition, the TGI with SNB-19 CNS, in the assay with PC-3 prostate, in the assay with RXF 393 renal and in the assay on RPMI-8226 leukemia was > 100 µM each time.
Turning to `O=P(CCCCP(=O)(c1ccccc1)c1ccccc1)(c1ccccc1)c1ccccc1.[Cl][Sn]([Cl])([c]1ccccc1)[c]1ccccc1`, the GI50 in the assay with SK-MEL-28 melanoma was 1.7 µM; in the assay with CAKI-1 renal, 0.661 µM; with SW-620 colon, 0.696 µM; in the assay on SK-MEL-2 melanoma it was 1.74 µM; in the assay on SF-268 CNS, 1.75 µM; in the assay with HCT-15 colon, 1.23 µM. For the same compound, the GI50 in the assay on SNB-19 CNS is 4.18 µM; with PC-3 prostate, 2.29 µM; with RXF 393 renal, 1.38 µM; with RPMI-8226 leukemia, 0.332 µM. In addition, the TGI is 3.32 µM with SK-MEL-28 melanoma; 3.32 µM with CAKI-1 renal; 5.59 µM in the assay on SW-620 colon; 3.39 µM in the assay with SK-MEL-2 melanoma; 4.05 µM in the assay on SF-268 CNS; 3.02 µM in the assay on HCT-15 colon. Besides, the TGI is 18 µM in the assay on SNB-19 CNS, 6.04 µM with PC-3 prostate, 3.13 µM in the assay on RXF 393 renal and 1.16 µM in the assay with RPMI-8226 leukemia.
